Data on one molecule can be found in ChEMBL document CHEMBL1275549, “A new tetracycline efflux gene, tet(40), is located in tandem with tet(O/32/O) in a human gut firmicute bacterium and in metagenomic library clones” (Antimicrob Agents Chemother, 2008).

Test [1] has as its system Escherichia coli. Nature of the test: Antibacterial activity against Escherichia coli EPI300 expressing tet(W) gene assessed as bacterial growth at 60 ug/ml after 18 hrs in presence of 2.5 ug/ml efflux pump inhibitor CCCP.
Test [2] deals with Escherichia coli. As to the kind of experiment: Antibacterial activity against Escherichia coli EPI300 expressing tet(W) gene assessed as inhibition of bacterial growth at 80 ug/ml after 18 hrs in presence of 2.5 ug/ml efflux pump inhibitor CCCP; values are per cent of control.
Test [3] has as its system Escherichia coli. As to the kind of experiment: Antibacterial activity against Escherichia coli EPI300 expressing tet(40) gene assessed as inhibition of bacterial growth at 40 ug/ml after 18 hrs in presence of 2.5 ug/ml efflux pump inhibitor CCCP; values are per cent of control.
The test system of test [4] is Escherichia coli. As to the kind of experiment: Antibacterial activity against Escherichia coli EPI300 harboring plasmid GEM-T expressing tet(40) gene after 16 hrs. Format: functional, organism-based. Particulars: EPI300, 16 h.
Test [5] has as its system Escherichia coli. As to the kind of experiment: Antibacterial activity against Escherichia coli EPI300 expressing tet(W) gene assessed as inhibition of bacterial growth at 40 ug/ml after 18 hrs in presence of 2.5 ug/ml efflux pump inhibitor CCCP; values are per cent of control.
The test system of test [6] is Escherichia coli. Nature of the test: Antibacterial activity against Escherichia coli EPI300 expressing tet(40) gene assessed as bacterial growth at 80 ug/ml after 18 hrs in presence of 2.5 ug/ml efflux pump inhibitor […].
In test [7] the test system is Escherichia coli. As to the kind of experiment: Antibacterial activity against Escherichia coli EPI300 expressing tet(40) gene assessed as bacterial growth at 60 ug/ml after 18 hrs in presence of 2.5 ug/ml efflux pump inhibitor CCCP.

≈ marks a conversion by molar mass, not a printed value.

A word on the IC50: it is the midpoint of a concentration-inhibition curve. High values mean weaker potency, low ones greater potency. As to `CN(C)[C@@H]1C(O)=C(C(N)=O)C(=O)[C@@]2(O)C(O)=C3C(=O)c4c(O)cccc4[C@@](C)(O)[C@H]3C[C@@H]12` [TETRACYCLINE], the “growth, % of control” value with Escherichia coli [1] amounted to 99.2%; in the test on Escherichia coli [2], 75.4%; in the test with Escherichia coli [3] it was 56.5%; in the test with Escherichia coli [5] it was 96.4%; with Escherichia coli [6], 16.5%; with Escherichia coli [7], 53.4%. Also, the IC50 in the test with Escherichia coli [4] was 60 µg/mL (≈ 135 µM).
